Patent publication US8466132B2, “Substituted tetracycline compounds” (Paratek Pharmaceuticals, Inc., priority 2004, dated 2013)

Columns and labels:
Type in all cases: cell-based
Design in all cases: key: Compounds which showed superior inhibition of S. aureus, S. pseumoniae and E. coli are indicated by “***,”; compounds which showed very good or good inhibition of S. aureus, S. pseumoniae and E. coli are indicated by “**” or “*” respectively; compounds which showed very good or good inhibition of S. aureus, S. pseumoniae and E. coli are indicated by “**” or “*” respectively
Details in all cases: broth microdilution in CAMHB, 35° C., approximately 18 hour
S. aureus RN450 = assay: In vitro minimum inhibitory concentration (MIC) assay, S. aureus
Method: (§1) The following assay is used to determine the efficacy of the tetracycline compounds against common bacteria. 2 mg of each compound is dissolved in 100 μl of DMSO. The solution is then added to cation-adjusted Mueller Hinton broth (CAMHB), which results in a final compound concentration of 200 μg per ml. The tetracycline compound solutions are diluted to 50 μL volumes, with a test compound concentration of 0.098 μg/ml. Optical density (OD) determinations are made from fresh log-phase broth cultures of the test strains. Dilutions are made to achieve a final cell density of 1×10^6 CFU/ml. At OD=1, cell densities for different genera should be approximately:
(§2) 50 μl of the cell suspensions are added to each well of microtiter plates. The final cell density should be approximately 5×10^5 CFU/ml. These plates are incubated at 35° C. in an ambient air incubator for approximately 18 hour. The plates are read with a microplate reader and are visually inspected when necessary. The MIC is defined as the lowest concentration of the tetracycline compound that inhibits growth.
(§3) Table 3 gives the MIC (μg/mL) of selected substituted tetracycline compounds against S. aureus, S. pseuimoniae, and E. coli.

S. pneumoniae 157E = assay: In vitro minimum inhibitory concentration (MIC) assay, S. pneumoniae
Method: as §1, §2, §3

E. coli MG 1655 = assay: In vitro minimum inhibitory concentration (MIC) assay, E. coli
Method: as §1, §2, §3

Median MIC for S. aureus RN450 (S. aureus RN450) | Median MIC for S. pneumoniae 157E (S. pneumoniae 157E) | Median MIC for E. coli MG 1655 (E. coli MG 1655) | Compound
* | * | * | COCCN(C)C(=O)c1cc(N(C)C)c2c(c1O)C(=O)C1=C(O)[C@]3(O)C(=O)C(C(N)=O)=C(O)[C@@H](N(C)C)[C@@H]3C[C@@H]1C2
*** | *** | * | COC(=O)C#Cc1cc(N(C)C)c2c(c1O)C(=O)C1=C(O)[C@]3(O)C(=O)C(C(N)=O)=C(O)[C@H](N(C)C)[C@@H]3C[C@@H]1C2
* | * | * | CONC(=O)c1cc(N(C)C)c2c(c1O)C(=O)C1=C(O)[C@]3(O)C(=O)C(C(N)=O)=C(O)[C@@H](N(C)C)[C@@H]3C[C@@H]1C2
*** | ** | * | CN(C)c1cc(C(=O)NCC(C)(C)C)c(O)c2c1C[C@H]1C[C@H]3[C@H](N(C)C)C(O)=C(C(N)=O)C(=O)[C@@]3(O)C(O)=C1C2=O
* | * | * | CN(C)c1cc(C#CC(=O)O)c(O)c2c1C[C@H]1C[C@H]3[C@@H](N(C)C)C(O)=C(C(N)=O)C(=O)[C@@]3(O)C(O)=C1C2=O
** | ** | * | CN(C)c1cc(C(=O)NC(C)(C)C)c(O)c2c1C[C@H]1C[C@H]3[C@H](N(C)C)C(O)=C(C(N)=O)C(=O)[C@@]3(O)C(O)=C1C2=O

More lines, now with the values behind:

Compound | Median MIC for S. aureus RN450 (S. aureus RN450) | Median MIC for S. pneumoniae 157E (S. pneumoniae 157E) | Median MIC for E. coli MG 1655 (E. coli MG 1655)
CN(C)c1cc(-c2nccs2)c(O)c2c1C[C@H]1C[C@H]3[C@H](N(C)C)C(O)=C(C(N)=O)C(=O)[C@@]3(O)C(O)=C1C2=O | *** | ** | *
CN(C)c1cc(C(=O)N2CCCCC2)c(O)c2c1C[C@H]1C[C@H]3[C@H](N(C)C)C(O)=C(C(N)=O)C(=O)[C@@]3(O)C(O)=C1C2=O | * | * | *
COCC#Cc1cc(N(C)C)c2c(c1O)C(=O)C1=C(O)[C@]3(O)C(=O)C(C(N)=O)=C(O)[C@@H](N(C)C)[C@@H]3C[C@@H]1C2 | *** | *** | *
CN(C)c1cc(-c2ncco2)c(O)c2c1C[C@H]1C[C@H]3[C@H](N(C)C)C(O)=C(C(N)=O)C(=O)[C@@]3(O)C(O)=C1C2=O | ** | ** | *
CN(C)c1cc(-c2cccc(C(=O)O)c2)c(O)c2c1C[C@H]1C[C@H]3[C@H](N(C)C)C(O)=C(C(N)=O)C(=O)[C@@]3(O)C(O)=C1C2=O | * | * | *
CN(C)c1cc(-c2ncccn2)c(O)c2c1C[C@H]1C[C@H]3[C@H](N(C)C)C(O)=C(C(N)=O)C(=O)[C@@]3(O)C(O)=C1C2=O | *** | ** | *
CN(C)c1cc(-c2ccccn2)c(O)c2c1C[C@H]1C[C@H]3[C@H](N(C)C)C(O)=C(C(N)=O)C(=O)[C@@]3(O)C(O)=C1C2=O | *** | *** | *
CN(C)c1cc(-c2cnccn2)c(O)c2c1C[C@H]1C[C@H]3[C@H](N(C)C)C(O)=C(C(N)=O)C(=O)[C@@]3(O)C(O)=C1C2=O | *** | *** | *
CN(C)c1cc(C(=O)N2CCCC2)c(O)c2c1C[C@H]1C[C@H]3[C@H](N(C)C)C(O)=C(C(N)=O)C(=O)[C@@]3(O)C(O)=C1C2=O | * | * | *
